Measurements reported in patent publication US7732375B2, “Hexyl carboxanilides and their use for controlling fungi” (Bayer CropScience AG, priority 2003, dated 2010).

tested on: Podosphaera leucotricha; experiment: Podosphaera test (apple)/protective; type: in vivo; details: 240 h, protective, application rate 100 g/ha, evaluation 10 days after inoculation, read-out: Efficacy in %
Procedure: (§1) • Solvents: 24.5 parts by weight of acetone • 24.5 parts by weight of dimethylacetamide • Emulsifier: 1 part by weight of alkylaryl polyglycol ether
(§2) To produce a suitable preparation of active compound, 1 part by weight of active compound is mixed with the stated amounts of solvents and emulsifier, and the concentrate is diluted with water to the desired concentration.
To test for protective activity, young plants are sprayed with the preparation of active compound at the stated application rate. After the spray coating has dried on, the plants are inoculated with an aqueous spore suspension of the apple mildew pathogen Podosphaera leucotricha. The plants are then placed in a greenhouse at about 23° C. and a relative atmospheric humidity of about 70%.
(§3) Evaluation is carried out 10 days after the inoculation. 0% means an efficacy which corresponds to that of the control, whereas an efficacy of 100% means that no infection is observed.

SMILES	pest or weed control at 100 g/ha [%]
CC(CC(C)(C)C)c1ccccc1NC(=O)c1cn(C)nc1Cl (stereo not drawn) [drawing 91]	100
CCC(C)(C)CC(C)c1ccccc1NC(=O)c1ccoc1C (stereo not drawn) [drawing 87]	91
CCc1nn(C)c(Cl)c1C(=O)Nc1ccccc1C(C)CC(C)(C)C (stereo not drawn) [drawing 90]	96
CCC(C)(C)CC(C)c1ccccc1NC(=O)c1sccc1C (stereo not drawn) [drawing 88]	98
Cc1nc(C(F)(F)F)c(C(=O)Nc2ccccc2C(C)CC(C)(C)C)s1 (stereo not drawn) [drawing 93]	100
Cc1ccsc1C(=O)Nc1ccccc1C(C)CC(C)(C)C (stereo not drawn) [drawing 85]	85
CC(CC(C)(C)C)c1ccccc1NC(=O)c1cn(C)nc1C(F)(F)F (stereo not drawn) [drawing 89]	95
CCC(C)(C)CC(C)c1ccccc1NC(=O)C1=C(C)OCCS1 (stereo not drawn) [drawing 86]	94
CC(CC(C)(C)C)c1ccccc1NC(=O)c1c(C(F)(F)F)nn(C)c1Cl (stereo not drawn)	97

tested on: Erysiphe graminis f.sp. hordei; experiment: Erysiphe test (barley)/protective; type: in vivo; details: protective, application rate 500 g/ha, evaluation 7 days after inoculation
Procedure: Solvent: 25 parts by weight of N,N-dimethylacetamide Emulsifier: 0.6 part by weight of alkylaryl polyglycol ether To produce a suitable preparation of active compound, 1 part by weight of active compound is mixed with the stated amounts of solvent and emulsifier, and the concentrate is diluted with water to the desired concentration. To test for protective activity, young plants are sprayed with the preparation of active compound at the stated application rate. After the spray coating has dried on, the plants are dusted with spores of Erysiphe graminis f.sp. hordei. The plants are placed in a greenhouse at a temperature of about 20° C. and a relative atmospheric humidity of about 80% to promote the development of mildew pustules. Evaluation is carried out 7 days after the inoculation. 0% means an efficacy which corresponds to that of the control, whereas an efficacy of 100% means that no infection is observed.

SMILES	Efficacy in % [%]
Cc1nc(C)c(C(=O)Nc2ccccc2C(C)CC(C)(C)C)s1 (stereo not drawn) [drawing 126]	100
Cc1ccsc1C(=O)Nc1ccccc1C(C)CC(C)(C)C (stereo not drawn) [drawing 127]	100
CCC(C)(C)CC(C)c1ccccc1NC(=O)c1ccoc1C (stereo not drawn) [drawing 129]	100
CCC(C)(C)CC(C)c1ccccc1NC(=O)C1=C(C)OCCS1 (stereo not drawn) [drawing 128]	94
Cc1nc(C(F)(F)F)c(C(=O)Nc2ccccc2C(C)CC(C)(C)C)s1 (stereo not drawn) [drawing 130]	100

tested on: not listed separately; experiment: logP determination by HPLC on reversed-phase column (C 18), EEC Directive 79/831 Annex V.A8; type: physicochemical; details: reversed-phase HPLC column (C 18), pH 2.3, 0.1% aqueous phosphoric acid and acetonitrile, 43° C.
Procedure: The determination of the logP values given in the preparation examples and tables above is carried out in accordance with EEC Directive 79/831 Annex V.A8 by HPLC (High Performance Liquid Chromatography) on a reversed-phase column (C 18). Temperature: 43° C. The determination is carried out in the acidic range at pH 2.3 using the mobile phases, 0.1% aqueous phosphoric acid and acetonitrile; linear gradient from 10% acetonitrile to 90% acetonitrile. Calibration is carried out using unbranched alkan-2-ones (of 3 to 16 carbon atoms) with known logP values (determination of the logP values by the retention times using linear interpolation between two successive alkanones).

chromatographic logP	SMILES
4.02	CC(CC(C)(C)C)c1ccccc1NC(=O)c1cn(C)nc1C(Cl)Cl (stereo not drawn) [Example 1]
1.8	Cn1cc(C(=O)Cl)c(C(Cl)Cl)n1 [Example (II-1), 3-dichloromethyl-1-methyl-1H-pyrazole-4-carbonyl chloride]

tested on: Puccinia recondita; experiment: Puccinia test (wheat)/protective; type: in vivo; details: wheat; application rate 500 g/ha; solvent/emulsifier a); evaluation 10 days after inoculation
Procedure: • a) Solvent: 50 parts by weight of N,N-dimethylacetamide Emulsifier: 1 part by weight of alkylaryl polyglycol ether • b) Solvent: 25 parts by weight of N,N-dimethylacetamide Emulsifier: 0.6 part by weight of alkylaryl polyglycol ether To produce a suitable preparation of active compound, 1 part by weight of active compound is mixed with the stated amounts of solvent and emulsifier, and the concentrate is diluted with water to the desired concentration. To test for protective activity, young plants are sprayed with the preparation of active compound at the stated application rate. After the spray coating has dried on, the plants are sprayed with a conidia suspension of Puccinia recondita. The plants remain in an incubation cabin at 20° C. and 100% relative atmospheric humidity for 48 hours. The plants are then placed in a greenhouse at a temperature of about 20° C. and a relative atmospheric humidity of 80% to promote the development of rust pustules. Evaluation is carried out 10 days after the inoculation. 0% means an efficacy which corresponds to that of the control, whereas an efficacy of 100% means that no infection is observed.

SMILES	Efficacy in % [%]
CC(CC(C)(C)C)c1ccccc1NC(=O)c1cn(C)nc1C(F)(F)F (stereo not drawn) [drawing 117]	100
Cc1nc(C)c(C(=O)Nc2ccccc2C(C)CC(C)(C)C)s1 (stereo not drawn) [drawing 113]	100
CCC(C)(C)CC(C)c1ccccc1NC(=O)c1cn(C)nc1C(F)(F)F (stereo not drawn)	100
Cc1nc(Cl)sc1C(=O)Nc1ccccc1C(C)CC(C)(C)C (stereo not drawn)	100
CCC(C)(C)CC(C)c1ccccc1NC(=O)C1=C(C)OCCS1 (stereo not drawn) [drawing 114]	100
CCc1nn(C)c(Cl)c1C(=O)Nc1ccccc1C(C)CC(C)(C)C (stereo not drawn) [drawing 118]	100

same assay, conditions: wheat; application rate 500 g/ha; solvent/emulsifier b); evaluation 10 days after inoculation

SMILES	Efficacy in % [%]
CC1=C(C(=O)Nc2ccccc2C(C)CC(C)(C)C)SCCO1 (stereo not drawn) [drawing 121]	100
Cc1occc1C(=O)Nc1ccccc1C(C)CC(C)(C)C (stereo not drawn)	100
CCC(C)(C)CC(C)c1ccccc1NC(=O)c1ccoc1C (stereo not drawn) [drawing 122]	100
Cc1ccsc1C(=O)Nc1ccccc1C(C)CC(C)(C)C (stereo not drawn) [drawing 119]	100

tested on: Botrytis cinerea; experiment: Botrytis test (bean)/protective; type: in vivo; details: Botrytis cinerea, 48 h, protective, application rate 500 g/ha, evaluation 2 days after inoculation, read-out: Efficacy in %
Procedure: as §1, §2
To test for protective activity, young plants are sprayed with the preparation of active compound at the stated application rate. After the spray coating has dried on, 2 small pieces of agar colonized by Botrytis cinerea are placed onto each leaf. The inoculated plants are placed in a dark chamber at about 20° C. and 100% relative atmospheric humidity.
2 days after the inoculation, the size of the infected areas on the leaves is evaluated. 0% means an efficacy which corresponds to that of the control, whereas an efficacy of 100% means that no infection is observed.

SMILES	pest or weed control at 500 g/ha [%]
CCC(C)(C)CC(C)c1ccccc1NC(=O)c1sccc1C (stereo not drawn) [drawing 108]	100
CC(CC(C)(C)C)c1ccccc1NC(=O)c1cn(C)nc1C(F)(F)F (stereo not drawn) [drawing 109]	100
CC1=C(C(=O)Nc2ccccc2C(C)CC(C)(C)C)SCCO1 (stereo not drawn) [drawing 105]	95
Cc1ccsc1C(=O)Nc1ccccc1C(C)CC(C)(C)C (stereo not drawn) [drawing 104]	100
CCC(C)(C)CC(C)c1ccccc1NC(=O)c1ccoc1C (stereo not drawn) [drawing 107]	88
Cc1nc(C(F)(F)F)c(C(=O)Nc2ccccc2C(C)CC(C)(C)C)s1 (stereo not drawn) [drawing 112]	95
CCC(C)(C)CC(C)c1ccccc1NC(=O)C1=C(C)OCCS1 (stereo not drawn) [drawing 106]	100
CC(CC(C)(C)C)c1ccccc1NC(=O)c1cn(C)nc1Cl (stereo not drawn) [drawing 110]	95

same assay, conditions: protective, application rate 500 g/ha, evaluation 2 days after inoculation

SMILES	Efficacy in % [%]
CC(CC(C)(C)C)c1ccccc1NC(=O)c1cn(C)nc1C(F)(F)F (stereo not drawn) [drawing 111]	97

tested on: Sphaerotheca fuliginea; experiment: Sphaerotheca test (cucumber)/protective; type: in vivo; details: protective, application rate 750 g/ha, evaluation 7 days after inoculation
Procedure: Solvent: 49 parts by weight of N,N-dimethylformamide Emulsifier: 1 part by weight of alkylaryl polyglycol ether To produce a suitable preparation of active compound, 1 part by weight of active compound is mixed with the stated amounts of solvent and emulsifier, and the concentrate is diluted with water to the desired concentration. To test for protective activity, young cucumber plants are sprayed with the preparation of active compound at the stated application rate. 1 day after treatment the plants are inoculated with a spore suspension of Sphaerotheca fuliginea. The plants are then placed in a greenhouse at a relative atmospheric humidity of 70% and a temperature of 23° C. Evaluation is carried out 7 days after the inoculation. 0% means an efficacy which corresponds to that of the control, whereas an efficacy of 100% means that no infection is observed.

SMILES	Efficacy in % [%]
Cc1ccsc1C(=O)Nc1ccccc1C(C)CC(C)(C)C (stereo not drawn) [drawing 124]	95
CC(F)c1nn(C)cc1C(=O)Nc1ccccc1C(C)CC(C)(C)C (stereo not drawn)	90
Cc1nc(C)c(C(=O)Nc2ccccc2C(C)CC(C)(C)C)s1 (stereo not drawn) [drawing 123]	95

tested on: Venturia inaequalis; experiment: Venturia test (apple)/protective; type: in vivo; details: Venturia inaequalis, 240 h, protective, application rate 100 g/ha, evaluation 10 days after inoculation, read-out: Efficacy in %
Procedure: as §1, §2
To test for protective activity, young plants are sprayed with the preparation of active compound at the stated application rate. After the spray coating has dried on, the plants are inoculated with an aqueous conidia suspension of the apple scab pathogen Venturia inaequalis and then remain in an incubation cabin at about 20° C. and 100% relative atmospheric humidity for 1 day.
The plants are then placed in a greenhouse at about 21° C. and a relative atmospheric humidity of about 90%.
as §3

SMILES	pest or weed control at 100 g/ha [%]
Cc1ccsc1C(=O)Nc1ccccc1C(C)CC(C)(C)C (stereo not drawn) [drawing 94]	96
CCC(C)(C)CC(C)c1ccccc1NC(=O)c1ccoc1C (stereo not drawn) [drawing 97]	93
Cc1nc(C(F)(F)F)c(C(=O)Nc2ccccc2C(C)CC(C)(C)C)s1 (stereo not drawn) [drawing 103]	99
CCC(C)(C)CC(C)c1ccccc1NC(=O)c1sccc1C (stereo not drawn) [drawing 98]	99
CC(CC(C)(C)C)c1ccccc1NC(=O)c1cn(C)nc1C(F)(F)F (stereo not drawn) [drawing 99]	95
CCc1nn(C)c(Cl)c1C(=O)Nc1ccccc1C(C)CC(C)(C)C (stereo not drawn) [drawing 100]	92
CC(CC(C)(C)C)c1ccccc1NC(=O)c1cn(C)nc1Cl (stereo not drawn) [drawing 101]	100
CCC(C)(C)CC(C)c1ccccc1NC(=O)C1=C(C)OCCS1 (stereo not drawn) [drawing 96]	100
CC1=C(C(=O)Nc2ccccc2C(C)CC(C)(C)C)SCCO1 (stereo not drawn) [drawing 95]	100

same assay, conditions: protective, application rate 100 g/ha, evaluation 10 days after inoculation

SMILES	Efficacy in % [%]
CC(CC(C)(C)C)c1ccccc1NC(=O)c1cn(C)nc1C(F)(F)F (stereo not drawn) [drawing 102]	99
